The record followed here is ChEMBL document CHEMBL1157452, “First synthesis of alpha-aminoalkyl-(N-substituted)thiocarbamoyl-phosphinates: inhibitors of aminopeptidase N (APN/CD13) with the new zinc-binding group” (Bioorg Med Chem Lett, 2008).

The test concerns the target T1, Aminopeptidase N (Sus scrofa, UniProt P15145).
T1 sequence (P15145 whole entry): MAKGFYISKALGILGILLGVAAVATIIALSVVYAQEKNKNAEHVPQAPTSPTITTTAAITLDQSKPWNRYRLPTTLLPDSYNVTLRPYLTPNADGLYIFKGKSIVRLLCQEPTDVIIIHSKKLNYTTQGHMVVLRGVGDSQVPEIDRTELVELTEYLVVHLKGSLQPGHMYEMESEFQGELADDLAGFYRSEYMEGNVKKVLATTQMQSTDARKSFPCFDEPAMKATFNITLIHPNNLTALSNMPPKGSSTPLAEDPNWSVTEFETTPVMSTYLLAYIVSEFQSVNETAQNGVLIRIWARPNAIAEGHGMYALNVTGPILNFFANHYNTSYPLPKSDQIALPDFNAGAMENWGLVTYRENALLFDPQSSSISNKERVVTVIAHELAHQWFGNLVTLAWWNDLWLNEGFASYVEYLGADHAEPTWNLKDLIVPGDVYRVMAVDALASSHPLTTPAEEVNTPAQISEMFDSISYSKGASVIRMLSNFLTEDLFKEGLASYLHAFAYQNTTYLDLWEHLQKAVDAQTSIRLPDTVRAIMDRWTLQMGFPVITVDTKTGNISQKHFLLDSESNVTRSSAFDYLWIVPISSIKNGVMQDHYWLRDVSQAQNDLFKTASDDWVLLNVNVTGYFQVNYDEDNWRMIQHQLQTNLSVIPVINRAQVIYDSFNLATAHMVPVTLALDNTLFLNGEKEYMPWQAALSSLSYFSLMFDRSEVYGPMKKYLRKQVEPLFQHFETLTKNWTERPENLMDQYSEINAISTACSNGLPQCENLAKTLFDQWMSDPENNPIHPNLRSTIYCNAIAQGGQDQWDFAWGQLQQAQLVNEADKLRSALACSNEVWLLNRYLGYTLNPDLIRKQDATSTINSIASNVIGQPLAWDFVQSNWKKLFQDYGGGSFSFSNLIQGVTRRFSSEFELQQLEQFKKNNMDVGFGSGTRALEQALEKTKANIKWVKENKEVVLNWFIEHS
In words: Inhibition of pig kidney aminopeptidase N.

Consider `CCCC(N)P(=O)(O)C(=S)NCc1ccc(OC)cc1` (configuration not stated), for which the IC50 is 680 nM. The same measure, in the same setting: the figure for `CC(N)P(=O)(O)C(=S)NCCc1ccccc1` (configuration not stated) is 4200 nM. Same read-out and setting: the figure for `CCCCC(N)P(=O)(O)C(=S)NCCc1ccccc1` (configuration not stated) is 730 nM; for `COc1ccc(CNC(=S)P(=O)(O)C(C)N)cc1` (configuration not stated) it is 1120 nM. Same read-out and setting: with `COc1ccc(CNC(=S)P(=O)(O)C(N)CCc2ccccc2)cc1` (configuration not stated) the figure was 380 nM. For the molecule `CCCCC(N)P(=O)(O)C(=S)NCc1ccc(OC)cc1` (configuration not stated), the concentration for half-maximal inhibition (IC50) amounted to 250 nM and the Ki was found to be 143 nM. In the case of `CCCCCCNC(=S)P(=O)(O)C(N)CC(C)C` (configuration not stated), half-maximal inhibition (IC50) required 500 nM. The same measure, in the same setting: the figure for `CC(C)CNC(=S)P(=O)(O)C(N)C(C)C` (configuration not stated) is 1900 nM. For `CCCCCCNC(=S)P(=O)(O)C(N)C(C)C` (configuration not stated), half-maximal inhibition (IC50) required 1180 nM. On the same count and under the same terms, the figure for `CCCC(N)P(=O)(O)C(=S)NCCc1ccccc1` (configuration not stated) is 2280 nM. Still for that read-out and setting: with `CNC(=S)P(=O)(O)C(N)CC(C)C` (configuration not stated) the figure was 10600 nM.

For orientation: IC50 means the concentration that gives 50% inhibition. Lower therefore signals higher potency. The Ki is a dissociation constant, usually derived from enzyme kinetics or from competition with a known ligand.
